Assay results taken from US8471005B2 (Cephalon, Inc., priority 2008, dated 2013).
Read-outs that look alike come from different tables or passages of the source.

Columns and labels:
ALK = biological target: T1, ALK (Homo sapiens, UniProt Q9UM73); experiment: ALK Kinase Assay (ELISA/TRF, PLC-γ substrate); type: biochemical; details: read-out: ALK Potency
T1 construct: host or cells: baculovirus expression system
Procedure, shortened: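 Wells were coated with 10 μg/mL phospholipase C-γ substrate in TBS, and the reaction was started by adding 30 ng/ml ALK enzyme and run at 37° C for 15 minutes. Phosphorylated product was detected with Eu-N1-labeled PT66 antibody, and IC50 values came from sigmoidal variable-slope fits of percent inhibition against log concentration.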

JAK2 = biological target: T2, JAK2 (Homo sapiens, UniProt O60674); experiment: Recombinant Human JAK2 Kinase Assay (TRF); type: biochemical; details: read-out: JAK2 Potency
T2 construct: host or cells: baculovirus expression system
Procedure, shortened: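 Europium-labelled PY100 antibody reported tyrosine phosphorylation of a Neutravidin-captured biotinyl 15-mer peptide by JAK2 (baculovirus-expressed, 15 ng/ml). Conditions: 20 mM HEPES pH 7.2, 0.2 μM ATP, 1 mM MnCl2, 0.1% BSA, DMSO 2.5% final, 20 min at room temperature.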

[1] = ALK kinase inhibition, 1 μM ATP
[2] = JAK2 kinase inhibition, 0.2 μM ATP

T2 sequence (O60674 whole entry): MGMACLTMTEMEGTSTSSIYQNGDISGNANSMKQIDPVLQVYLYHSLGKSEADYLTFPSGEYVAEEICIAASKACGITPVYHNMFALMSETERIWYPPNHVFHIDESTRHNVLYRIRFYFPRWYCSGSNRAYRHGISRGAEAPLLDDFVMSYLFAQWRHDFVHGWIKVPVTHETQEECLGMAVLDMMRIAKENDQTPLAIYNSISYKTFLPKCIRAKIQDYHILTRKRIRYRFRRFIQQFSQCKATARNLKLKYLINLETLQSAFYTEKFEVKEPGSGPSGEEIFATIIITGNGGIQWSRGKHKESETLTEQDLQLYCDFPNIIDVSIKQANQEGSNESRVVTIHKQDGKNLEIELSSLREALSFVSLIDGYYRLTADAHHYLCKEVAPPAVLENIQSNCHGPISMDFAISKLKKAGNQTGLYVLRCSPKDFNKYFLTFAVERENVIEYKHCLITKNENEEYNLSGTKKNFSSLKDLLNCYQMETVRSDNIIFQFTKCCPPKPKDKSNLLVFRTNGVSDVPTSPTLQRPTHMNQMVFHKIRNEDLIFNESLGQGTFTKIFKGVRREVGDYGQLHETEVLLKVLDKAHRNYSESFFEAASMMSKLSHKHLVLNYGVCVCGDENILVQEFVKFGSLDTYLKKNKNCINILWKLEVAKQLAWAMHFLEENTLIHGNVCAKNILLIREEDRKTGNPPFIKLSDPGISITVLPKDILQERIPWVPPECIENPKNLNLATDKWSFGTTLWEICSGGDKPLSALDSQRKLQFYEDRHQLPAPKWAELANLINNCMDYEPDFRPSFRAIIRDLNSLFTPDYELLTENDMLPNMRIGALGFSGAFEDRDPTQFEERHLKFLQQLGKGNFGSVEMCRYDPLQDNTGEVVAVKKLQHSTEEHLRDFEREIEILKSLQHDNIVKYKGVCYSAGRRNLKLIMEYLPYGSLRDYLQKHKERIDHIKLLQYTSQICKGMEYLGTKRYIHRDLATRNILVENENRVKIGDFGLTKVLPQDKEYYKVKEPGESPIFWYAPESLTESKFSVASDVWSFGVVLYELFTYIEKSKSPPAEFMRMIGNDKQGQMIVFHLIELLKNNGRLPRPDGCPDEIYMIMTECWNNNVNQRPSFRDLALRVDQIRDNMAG
T1 sequence (Q9UM73 19-1620): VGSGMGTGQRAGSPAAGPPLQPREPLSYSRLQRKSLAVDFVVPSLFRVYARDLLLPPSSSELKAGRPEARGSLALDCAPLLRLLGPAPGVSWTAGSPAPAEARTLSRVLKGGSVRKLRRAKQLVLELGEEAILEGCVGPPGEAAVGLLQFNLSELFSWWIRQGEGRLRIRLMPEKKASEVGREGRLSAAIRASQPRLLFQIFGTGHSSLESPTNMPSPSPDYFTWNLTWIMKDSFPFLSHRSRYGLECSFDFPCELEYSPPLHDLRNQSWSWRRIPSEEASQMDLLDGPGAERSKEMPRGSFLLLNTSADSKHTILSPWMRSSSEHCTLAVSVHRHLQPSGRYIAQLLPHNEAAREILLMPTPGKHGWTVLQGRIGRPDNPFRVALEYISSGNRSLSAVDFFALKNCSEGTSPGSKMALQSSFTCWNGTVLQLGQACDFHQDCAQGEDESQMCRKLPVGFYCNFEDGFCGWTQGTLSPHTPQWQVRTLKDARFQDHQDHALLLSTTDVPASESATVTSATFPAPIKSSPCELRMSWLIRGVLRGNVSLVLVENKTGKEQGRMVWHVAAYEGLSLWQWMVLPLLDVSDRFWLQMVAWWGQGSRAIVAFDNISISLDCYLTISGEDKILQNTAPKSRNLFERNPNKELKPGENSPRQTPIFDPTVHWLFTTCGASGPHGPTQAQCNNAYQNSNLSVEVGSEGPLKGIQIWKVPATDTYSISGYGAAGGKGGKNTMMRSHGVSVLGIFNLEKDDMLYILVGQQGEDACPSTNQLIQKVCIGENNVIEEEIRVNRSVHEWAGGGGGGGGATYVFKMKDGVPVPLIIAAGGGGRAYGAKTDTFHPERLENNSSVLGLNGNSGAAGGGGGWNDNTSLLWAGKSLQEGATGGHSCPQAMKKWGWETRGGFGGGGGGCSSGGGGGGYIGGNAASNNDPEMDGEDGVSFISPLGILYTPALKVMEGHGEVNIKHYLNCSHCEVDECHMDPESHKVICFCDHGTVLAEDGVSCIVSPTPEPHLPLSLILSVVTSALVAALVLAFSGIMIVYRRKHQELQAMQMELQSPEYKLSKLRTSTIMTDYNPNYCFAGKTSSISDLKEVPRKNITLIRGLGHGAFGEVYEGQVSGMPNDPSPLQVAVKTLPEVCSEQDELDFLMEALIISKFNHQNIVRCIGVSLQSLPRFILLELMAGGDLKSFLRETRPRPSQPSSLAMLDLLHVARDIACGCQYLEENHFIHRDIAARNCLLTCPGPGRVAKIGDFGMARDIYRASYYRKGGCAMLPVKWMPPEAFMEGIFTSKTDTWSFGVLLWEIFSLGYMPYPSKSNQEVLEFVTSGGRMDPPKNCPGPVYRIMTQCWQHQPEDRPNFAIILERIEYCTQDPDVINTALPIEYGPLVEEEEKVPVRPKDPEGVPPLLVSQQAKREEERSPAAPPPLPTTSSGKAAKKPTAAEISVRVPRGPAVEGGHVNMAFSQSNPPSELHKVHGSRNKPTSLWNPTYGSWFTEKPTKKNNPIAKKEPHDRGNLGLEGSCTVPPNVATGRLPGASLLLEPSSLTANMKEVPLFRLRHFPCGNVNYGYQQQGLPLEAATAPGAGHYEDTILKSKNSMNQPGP

Row | Compound | IC50 (ALK; ALK Kinase Inhibition) | IC50 (JAK2; JAK2 Kinase Inhibition) | IC50 (ALK; [1]) | IC50 (JAK2; [2])
1 | Clc1cccc(-c2ccc3cnc(Nc4ccc(N5CCOCC5)cc4)nn23)c1 [Example 1, [7-(3-Chloro-phenyl)-pyrrolo[2,1-f][1,2,4]triazin-2-yl]-(4-morpholin-4-yl-phenyl)-amine] | > 10000 nM | < 100 nM | – | –
2 | CS(=O)(=O)c1ccc(-c2ccc3cnc(Nc4ccc5nc[nH]c5c4)nn23)cc1 [Example 1304, (3H-Benzimidazol-5-yl)-[7-(4-methanesulfonyl-phenyl)-pyrrolo[2,1-f][1,2,4]triazin-2-yl]-amine] | – | – | 100 to 1000 nM | < 100 nM
3 | CC(C)(O)CN1CCN(c2cccc(Nc3ncc4ccc(-c5cccc(Cl)c5)n4n3)c2)CC1 [Example 220, 1-(4-{3-[7-(3-Chloro-phenyl)-pyrrolo[2,1-f][1,2,4]triazin-2-ylamino]-phenyl}-piperazin-1-yl)-2-methyl-propan-2-ol] | 100 to 1000 nM | < 100 nM | – | –
4 | O=C(NCCCN1CCCC1)c1ccc(-c2ccc3cnc(Nc4ccc(N5CCOCC5)cc4)nn23)cc1 [Example 54, 4-[2-(4-Morpholin-4-yl-phenylamino)-pyrrolo[2,1-f][1,2,4]triazin-7-yl]-N-(3-pyrrolidin-1-yl-propyl)-benzamide] | 100 to 1000 nM | < 100 nM | – | –
5 | CN(c1ccccc1-c1ccc2cnc(Nc3ccc4ncn(CCN5CCOCC5)c4c3)nn12)S(C)(=O)=O [Example 1336, N-Methyl-N-(2-{2-[3-(2-morpholin-4-yl-ethyl)-3H-benzimidazol-5-ylamino]-pyrrolo[2,1-f][1,2,4]triazin-7-yl}-phenyl)-methanesulfonamide] | – | – | 1000 to 10000 nM | < 100 nM
6 | CN1CCN(C(=O)c2cccc(Nc3ncc4ccc(-c5cccnc5)n4n3)c2)CC1 [Example 341, (4-Methyl-piperazin-1-yl)-[3-(7-pyridin-3-yl-pyrrolo[2,1-f][1,2,4]triazin-2-ylamino)-phenyl]-methanone] | 1000 to 10000 nM | < 100 nM | – | –
7 | CC(=O)c1ccccc1-c1ccc2cnc(Nc3ccc(N4CCOCC4)cc3)nn12 [Example 400, 1-{2-[2-(4-Morpholin-4-yl-phenylamino)-pyrrolo[2,1-f][1,2,4]triazin-7-yl]-phenyl}-ethanone] | 1000 to 10000 nM | < 100 nM | – | –
8 | CS(=O)(=O)Nc1cccc(-c2ccc3cnc(Nc4ccc5c(c4)CCC(N4CCOCC4)CC5)nn23)c1 (centres unmarked) [Example 382, N-{3-[2-(7-Morpholin-4-yl-6,7,8,9-tetrahydro-5H-benzocyclohepten-2-ylamino)-pyrrolo[2,1-f][1,2,4]triazin-7-yl]-phenyl}-methanesulfonamide] | 100 to 1000 nM | < 100 nM | – | –
9 | Clc1ncccc1-c1ccc2cnc(Nc3ccc(N4CCOCC4)cc3)nn12 [Example 1034, [7-(2-Chloro-pyridin-3-yl)-pyrrolo[2,1-f][1,2,4]triazin-2-yl]-(4-morpholin-4-yl-phenyl)-amine] | – | – | 1000 to 10000 nM | < 100 nM
10 | CS(=O)(=O)c1cccc(-c2ccc3cnc(Nc4ccc(C5CCNCC5)nc4)nn23)c1 [Example 1025, (1′,2′,3′,4′,5′,6′-Hexahydro-[2,4′]bipyridinyl-5-yl)-[7-(3-methanesulfonyl-phenyl)-pyrrolo[2,1-f][1,2,4]triazin-2-yl]-amine] | – | – | 100 to 1000 nM | < 100 nM
11 | CC(C)(C)NS(=O)(=O)c1cccc(-c2ccc3cnc(Nc4ccc(C5CCN(CCO)CC5)cc4)nn23)c1 [Example 670, N-tert-Butyl-3-(2-{4-[1-(2-hydroxy-ethyl)-piperidin-4-yl]-phenylamino}-pyrrolo[2,1-f][1,2,4]triazin-7-yl)-benzenesulfonamide] | – | – | 100 to 1000 nM | < 100 nM
12 | CC(C)S(=O)(=O)c1ccc(-c2ccc3cnc(Nc4ccc(N5CCOCC5)cc4)nn23)cc1 [Example 199, (4-Morpholin-4-yl-phenyl)-{7-[4-(propane-2-sulfonyl)-phenyl]-pyrrolo[2,1-f][1,2,4]triazin-2-yl}-amine] | 1000 to 10000 nM | < 100 nM | – | –
13 | CN1CCN(C(=O)C2CCN(c3ccc(Nc4ncc5ccc(-c6ccccc6N(C)S(C)(=O)=O)n5n4)cc3)CC2)CC1 [Example 448, N-Methyl-N-[2-(2-{4-[4-(4-methyl-piperazine-1-carbonyl)-piperidin-1-yl]-phenylamino}-pyrrolo[2,1-f][1,2,4]triazin-7-yl)-phenyl]-methanesulfonamide] | < 100 nM | < 100 nM | – | –
14 | Cc1nc(-c2ccc3cnc(Nc4ccc(N5CCN(C)CC5)cc4)nn23)cn1C [Example 1042, [7-(1,2-Dimethyl-1H-imidazol-4-yl)-pyrrolo[2,1-f][1,2,4]triazin-2-yl]-[4-(4-methyl-piperazin-1-yl)-phenyl]-amine] | – | – | 100 to 1000 nM | < 100 nM
15 | COc1ccccc1-c1ccc2cnc(Nc3ccc(C4CCN(CCO)CC4)cc3)nn12 [Example 668, 2-(4-{4-[7-(2-Methoxy-phenyl)-pyrrolo[2,1-f][1,2,4]triazin-2-ylamino]-phenyl}-piperidin-1-yl)-ethanol] | – | – | < 100 nM | < 100 nM
16 | CN1CCN(C2CCN(c3ccc(Nc4ncc5ccc(-c6cccc(Cl)c6)n5n4)cc3)CC2)CC1 [Example 312, [7-(3-Chloro-phenyl)-pyrrolo[2,1-f][1,2,4]triazin-2-yl]-{4-[4-(4-methyl-piperazin-1-yl)-piperidin-1-yl]-phenyl}-amine] | < 100 nM | < 100 nM | – | –

Further lines, results first:

Row | IC50 (ALK; ALK Kinase Inhibition) | IC50 (JAK2; JAK2 Kinase Inhibition) | IC50 (ALK; [1]) | IC50 (JAK2; [2]) | Compound
17 | 100 to 1000 nM | < 100 nM | – | – | O=C(c1ccc(-c2ccc3cnc(Nc4ccc(N5CCOCC5)cc4)nn23)cc1)N1CCOCC1 [Example 14, Morpholin-4-yl-{4-[2-(4-morpholin-4-yl-phenylamino)-pyrrolo[2,1-f][1,2,4]triazin-7-yl]-phenyl}-methanone]
18 | – | – | < 100 nM | 100 to 1000 nM | COc1cc(C2CCNCC2)ccc1Nc1ncc2c(C)cc(-c3ccccc3N(C)S(C)(=O)=O)n2n1 [Example 1263, N-{2-[2-(2-Methoxy-4-piperidin-4-yl-phenylamino)-5-methyl-pyrrolo[2,1-f][1,2,4]triazin-7-yl]-phenyl}-N-methyl-methanesulfonamide]
19 | – | – | < 100 nM | 100 to 1000 nM | 7-(2-Methoxy-phenyl)-2-(2-methoxy-4-piperazin-1-ylmethyl-phenoxy)-pyrrolo[2,1-f][1,2,4]triazine [Example 1238]
20 | 100 to 1000 nM | < 100 nM | – | – | CN1C(=O)Cc2cc(Nc3ncc4ccc(-c5cccc(NS(C)(=O)=O)c5)n4n3)ccc21 [Example 361, N-{3-[2-(1-Methyl-2-oxo-2,3-dihydro-1H-indol-5-ylamino)-pyrrolo[2,1-f][1,2,4]triazin-7-yl]-phenyl}-methanesulfonamide]
21 | – | – | < 100 nM | 100 to 1000 nM | COc1cc(C2CCN(CC(O)CF)CC2)ccc1Nc1ncc2ccc(-c3ccccc3N(C)S(C)(=O)=O)n2n1 (racemic) [Example 826, (±)-N-[2-(2-{4-[1-(3-Fluoro-2-hydroxy-propyl)-piperidin-4-yl]-2-methoxy-phenylamino}-pyrrolo[2,1-f][1,2,4]triazin-7-yl)-phenyl]-N-methyl-methanesulfonamide]
22 | – | – | 100 to 1000 nM | < 100 nM | CC(C)(C)NS(=O)(=O)c1cccc(-c2ccc3cnc(Nc4ccc(C5CN(CC(N)=O)C5)cc4)nn23)c1 [Example 577, 2-(3-{4-[7-(3-tert-Butylsulfamoyl-phenyl)-pyrrolo[2,1-f][1,2,4]triazin-2-ylamino]-phenyl}-azetidin-1-yl)-acetamide]
23 | < 100 nM | 100 to 1000 nM | – | – | COc1cc(N2CCC[C@@H](C(=O)N3CCN(C)CC3)C2)ccc1Nc1ncc2ccc(-c3ccccc3N(C)S(C)(=O)=O)n2n1 [Example 462, N-[2-(2-{2-Methoxy-4-[(R)-3-(4-methyl-piperazine-1-carbonyl)-piperidin-1-yl]-phenylamino}-pyrrolo[2,1-f][1,2,4]triazin-7-yl)-phenyl]-N-methyl-methanesulfonamide]
24 | – | – | 100 to 1000 nM | 1000 to 10000 nM | COc1cc(N2CCC(N3CCOCC3)CC2)ccc1Nc1ncc2ccc(-n3cccn3)n2n1 [Example 1272, [2-Methoxy-4-(4-morpholin-4-yl-piperidin-1-yl)-phenyl]-(7-pyrazol-1-yl-pyrrolo[2,1-f][1,2,4]triazin-2-yl)-amine]
25 | – | – | 100 to 1000 nM | < 100 nM | COc1ccccc1-c1ccc2cnc(Nc3ccc(C4=CCN(CC(N)=O)CC4)c(C(F)(F)F)c3)nn12 [Example 952, 2-(4-{4-[7-(2-Methoxy-phenyl)-pyrrolo[2,1-f][1,2,4]triazin-2-ylamino]-2-trifluoromethyl-phenyl}-3,6-dihydro-2H-pyridin-1-yl)-acetamide]
26 | – | – | < 100 nM | 1000 to 10000 nM | COc1cc([C@H]2CC[C@@H](N3CCOCC3)CC2)ccc1Nc1ncc2ccc(-c3ccccc3N(C)S(C)(=O)=O)n2n1 [Example 1249, N-{2-[2-({2-methoxy-4-[cis-4-(morpholin-4-yl)cyclohexyl]phenyl}amino)pyrrolo[2,1-f][1,2,4]triazin-7-yl]phenyl}-N-methylmethanesulfonamide]
27 | < 100 nM | < 100 nM | – | – | CN1CCC2(CCc3cc(Nc4ncc5ccc(-c6cccc(NS(C)(=O)=O)c6)n5n4)ccc3O2)CC1 [Example 378]
28 | 100 to 1000 nM | < 100 nM | – | – | Cc1cc(-c2ccc(S(C)(=O)=O)cc2)n2nc(Nc3ccc(N4CCN(C)CC4)cc3)ncc12 [Example 108, [7-(4-Methanesulfonyl-phenyl)-5-methyl-pyrrolo[2,1-f][1,2,4]triazin-2-yl]-[4-(4-methyl-piperazin-1-yl)-phenyl]-amine]
